In patent US20190226949A1, “IRIDIUM COMPLEXES FOR CELLULAR IMAGING” (UNIVERSITY OF SOUTH AUSTRALIA, priority 2016, published 2019):
Values joined by “and” are separate entries in the source; they are usually repeats but may differ in a detail not shown here. Equal entries are not always repeated.

Columns and labels:
[1] = Photophysical measurements (absorption, emission, lifetime, quantum yield) in diluted solutions; type: physicochemical; details: for Emission λem / τaer, excited state lifetime (relative weight in parentheses) / τdeaer, excited state lifetime (relative weight in parentheses): 298K; for Φaer, quantum yield / Φdeaer, quantum yield: versus Ru(bpy)3^2+ in water (φr = 0.028); for τdeaer, excited state lifetime (relative weight in parentheses) / Φdeaer, quantum yield: deaerated; for knr: calculated as [(1 − φ)/τ] from deaerated solutions; for kr: calculated as [φ/τ] from deaerated solutions; for Φ, quantum yield: versus Ru(bpy)3^2+ in water; for red-shift of emission from ethyl laurate to dichloromethane: ethyl laurate vs dichloromethane
Source text: A summary of the photophysical data for the complexes as diluted solutions (10^−5 M) in dichloromethane, water, PBS, lysosomal fluid solution, and ethyl laurate is reported in Table 1. All the listed aqueous media also contain 0.1% DMSO to favour the solubilisation of the complexes. The various solvents have been chosen to identify potential modulations on the photophysical behaviour of the iridium complexes in diverse cellular environments such as cytoplasm, endosome/lysosomes acidic organelles, or lipid-rich compartments like membranes, endoplasmic reticulum, and lipid droplets. In general, the photophysical characteristics were measured in aerated solutions to take into account the presence of oxygen in live cells. On the other hand, dichloromethane solutions were compared as aerated and degassed to confirm oxygen sensitivity and triplet character of the excited states of the complexes.
Absorption spectra were recorded at room temperature using a Cary 4000 UV/Vis spectrometer. Uncorrected steady state emission and excitation spectra were recorded on an Edinburgh FLSP980-S2S2-stm spectrometer equipped with: i) a temperature-monitored cuvette holder; ii) 450 W Xenon arc lamp; iii) double excitation and emission monochromators; iv) a Peltier cooled Hamamatsu R928P photomultiplier tube (spectral range 200-870 nm). Emission and excitation spectra were corrected for source intensity (lamp and grating) and emission spectral response (detector and grating) by a calibration curve supplied with the instrument. According to the approach described by Demas and Crosby, luminescence quantum yields (Φem) were measured in optically dilute solutions (O.D.<0.1 at excitation wavelength) obtained from absorption spectra on a wavelength scale [nm] and compared to the reference emitter by the following equation: […]
where A is the absorbance at the excitation wavelength (λ), I is the intensity of the excitation light at the excitation wavelength (λ), n is the refractive index of the solvent, D is the integrated intensity of the luminescence and Φ is the quantum yield. The subscripts r and x refer to the reference and the sample, respectively. The quantum yield determinations were performed at identical excitation wavelength for the sample and the reference, therefore cancelling the I(λr)/I(λx) term in the equation. The quantum yields of complexes were measured against Rubipy in water (Φr=0.028). Emission lifetimes (z) were determined with the time correlated single photon counting technique (TCSPC) with the same Edinburgh FLSP980-S2S2-stm spectrometer using either a pulsed picosecond LED (EPLED/EPL 377 nm, FHWM<800 ps) or a microsecond flashlamp. The goodness of fit was assessed by minimising the reduced χ^2 function and by visual inspection of the weighted residuals. The solvents used for the preparation of the solutions for the photophysical investigations were of LR grade and the water was deionised. Degassing of the dichlorometane solutions was performed using the freeze-pump-thaw method. Experimental uncertainties are estimated to be ±8% for lifetime determinations, ±20% for quantum yields, ±2 nm and ±5 nm for absorption and emission peaks, respectively.

[2] = test system: H9c2 rat cardiomyoblast cells; test: Staining and co-staining of live H9c2 cells, confocal and two-photon microscopy; type: cell-based; details: for cellular localisation (co-staining): live H9c2, 20 μM, 30 minutes; for emission profile from cells: live H9c2, one-photon or two-photon excitation
Method: Live H9c2 rat cardiomyoblasts were incubated with the iridium complexes for 30 minutes. Complexes were made to a final concentration of 20 μM in the cell culture medium with DMSO concentration <0.2%. Under these conditions, the luminescence from the iridium complexes within the cells was detected via confocal microscopy under single-photon excitation (403 nm) or two-photon excitation (810-840 nm).
To determine the localisation of the iridium complexes, co-staining experiments were carried out with the use of ER-Tracker™ Red (endoplasmic reticulum), LysoTracker® Red DND-99 (acidic compartments), MitoTracker® Red (mitochondria), BODIPY® 500/510 C1, C12(fatty acid) or β-BODIPY® FL HPC (phospholipids). […] This difference was also in agreement with the trend of the quantum yield data illustrated before and detection of internalised complex by ICP-MS.
H9c2 rat cardiomyoblast cell line was a kind gift from Professor Janna Morrison (University of South Australia). The H9c2 cells were maintained in high-glucose (4500 mg/L) DMEM medium (Sigma-Aldrich, USA) containing 10% fetal bovine serum (FBS; In Vitro Technologies, USA) and 2 mM L-glutamine (Sigma-Aldrich, USA) at 37° C. and 5% CO2. The H9c2 cells were cultured in […] flasks, and cells (1×10^6 cells/mL) that had been passaged, from two up to five times were used for experiments. For live cell imaging and MTS assay, the H9c2 cells (1×10^5 cells/mL) were cultured overnight in either ibidi μ-Slide 8 wells in a final volume of 250 μL or 96-well microtiter plate in a final volume of 200 μL in absence of Ir-based molecular probes.
The H9c2 cells were incubated with 20 μM of Ir-based molecular probes for 30 minutes in FBS-free media (300 μL) at 37° C. and 5% CO2. These cells were washed twice with phosphate buffered saline (PBS) and once with FBS-free media, and then co-stained with either ER-Tracker™ Red (BODIPY® TR Glibenclamide), LysoTracker® Red DND-99, MitoTracker® Red CMXRos (1H,5H,11H,15H-Xantheno[2,3,4-ij:5,6,7-i′j′]diquinolizin-18-ium, 9-[4-(chloromethyl)phenyl]-2,3,6,7,12,13,16,17-octahydro-, chloride), β-BODIPY® FL C5-HPC (2-(4,4-Difluoro-5,7-Dimethyl-4-Bora-3a,4a-Diaza-s-Indacene-3-Pentanoyl)-1-Hexadecanoyl-sn-Glycero-3-Phosphocholine) or BODIPY® 500/510 C1, C12 (4,4-Difluoro-5-Methyl-4-Bora-3a,4a-Diaza-s-Indacene-3-Dodecanoic Acid), which were obtained from Life Technologies Australia Pty Ltd, Australia. Cell biology analysis was carried out with a minimum of two experimental groups. Imaging analysis was performed using a Nikon A1+ confocal microscope equipped with 403 nm, 488 nm, 561 nm and 640 nm solid-state lasers (Nikon, Japan) and OKOLab Microscope Incubator (Okolab USA Inc., USA). The final preparation of the images was conducted with Adobe Photoshop CC (Adobe Systems Inc., USA).
The H9c2 cells were incubated with 20 μM of Ir-based molecular probes for 30 minutes in FBS-free media (300 μL) at 37° C. and 5% CO2. These cells then were washed with phosphate buffered saline (PBS) and imaged using Zeiss LSM710 META NLO inverted microscope supplemented with a two-photon Mai-Tai®, tunable Ti:Sapphire femtosecond pulse laser (710-920 nm, Spectra-Physics). Fluorescence of Ir-based molecular probes was detected using the following settings: two-photon excitation wavelength 830 nm, beam splitter MBS 690+, emission interval 520-650 nm. The H9c2 cells were exposed to two-photon illumination between 810-840 nm. A continuum of lambda stack images was captured across the emission spectrum 416-728 nm. The images were acquired using a Plan-APOCHROMAT 63X/NA1.4 oil immersion objective. The final preparation of the images was conducted with Adobe Photoshop CC (Adobe Systems Inc., USA).

[3] = Lipophilicity by shake-flask method (7.4-buffered PBS / n-octanol); type: physicochemical; details: pH 7.4; 7.4-buffered PBS solution and n-octanol; read-out: logD7.4, distribution coefficient
Method: The lipophilicity of the iridium complexes was measured by the shake-flask method using 7.4-buffered PBS and n-octanol as solvents (Table 2). The values range between 1.49 and 2.68 are typical for cyclometalated iridium complexes that have not been bioconjugated. […] In general, neutral complexes have log D7.4 values above 2.00 and there is an increased in lipophilicity of extending the tetrazolato ligand with the addition of a phenyl spacer in [Ir(ppy)2(TzPyPhCN)], or by extending the conjugation on passing from pyridine to quinoline or isoquinoline for [Ir(ppy)2(TzQn)] and [Ir(ppy)2(TziQn)]. Methylation in all cases reduces lipophilicity to log D7.4 values […], with the same trend within the family of methylated complexes as previously observed for the neutral ones.

Row | Structure (SMILES) | Absorption λabs [nm] (10^4ε [M^−1cm^−1]) ([1]; DCM, 10^−5 M) | Emission λem ([1]; DCM, 10^−5 M) | τaer, excited state lifetime (relative weight in parentheses) ([1]; DCM, aerated) | Φaer, quantum yield ([1]; DCM, aerated) | τdeaer, excited state lifetime (relative weight in parentheses) ([1]; DCM) | Φdeaer, quantum yield ([1]; DCM) | knr ([1]; DCM) | kr ([1]; DCM) | Absorption λabs [nm] (10^4ε [M^−1cm^−1]) ([1]; H2O with 0.1% DMSO, 10^−5 M) | Emission λem ([1]; H2O with 0.1% DMSO, aerated) | Φ, quantum yield ([1]; H2O with 0.1% DMSO, aerated) | cellular localisation (co-staining) [2] | emission profile from cells [2] | logD [3] | red-shift of emission from ethyl laurate to dichloromethane [1] | red-shift of emission on passing from a PBS to a lysosomal fluid solution ([1]; PBS vs lysosomal fluid solution)
1 | C[n+]1nc2[n](n1)[Ir]13([c]4cc(F)cc(F)c4-c4cccc[n+]41)([c]1cc(F)cc(F)c1-c1cccc[n+]13)[n+]1cc(C#N)ccc1-2 [[Ir(F2ppy)2(MeTzPyCN)]^+] | 250 (3.56) nm (10^4ε [M^−1cm^−1]) and 316 (1.28) nm (10^4ε [M^−1cm^−1]) and 356 (0.58) nm (10^4ε [M^−1cm^−1]) | 600 nm | 287 ns | 0.057 | 551 ns | 0.188 | 1.601 10^6s^−1 | 2.142 10^5s^−1 | 260 (4.12) nm (10^4ε [M^−1cm^−1]) and 309 (1.55) nm (10^4ε [M^−1cm^−1]) and 353 (0.66) nm (10^4ε [M^−1cm^−1]) | 636 nm | 0.005 | staining pattern consistent with mitochondrial localisation | blue-shifted and almost superimposable bands between these cationic complexes and their neutral analogues | 1.86 ± 0.02 | – | –
2 | C[n+]1nc2[n](n1)[Ir]13([c]4ccccc4-c4cccc[n+]41)([c]1ccccc1-c1cccc[n+]13)[n+]1ccc3ccccc3c1-2 [[Ir(ppy)2(MeTziQn)]^+] | 253 (6.96) nm (10^4ε [M^−1cm^−1]) and 303 (2.45) nm (10^4ε [M^−1cm^−1]) and 371 (1.24) nm (10^4ε [M^−1cm^−1]) | 640 nm | 208 ns | 0.049 | 485 ns | 0.063 | 1.932 10^6s^−1 | 1.299 10^5s^−1 | 251 (6.64) nm (10^4ε [M^−1cm^−1]) and 291 (2.60) nm (10^4ε [M^−1cm^−1]) and 355 (1.36) nm (10^4ε [M^−1cm^−1]) | 660 nm | 0.004 | preferential localisation in the endoplasmic reticulum and fatty acids and phospholipids | red-shifted consistently with the photophysical data | 1.49 ± 0.06 | almost no shift is observed | –
3 | C[n+]1nc2[n](n1)[Ir]13([c]4ccccc4-c4cccc[n+]41)([c]1ccccc1-c1cccc[n+]13)[n+]1cc(-c3ccc(C#N)cc3)ccc1-2 [[Ir(ppy)2(MeTzPyPhCN)]^+] | 267 (3.39) nm (10^4ε [M^−1cm^−1]) and 290 (3.14) nm (10^4ε [M^−1cm^−1]) and 378 (0.40) nm (10^4ε [M^−1cm^−1]) | 600 nm | 184 ns | 0.057 | 434 ns | 0.093 | 2.090 10^6s^−1 | 2.143 10^5s^−1 | – | 605 nm | 0.005 | staining pattern consistent with mitochondrial localisation | blue-shifted and almost superimposable bands between these cationic complexes and their neutral analogues | 1.87 ± 0.08 | almost no shift is observed | 22 nm
